Experiments:
AAGlyB (GTA-L266G/G268A) [1] = target: T1, AAGlyB (GTA-L266G/G268A) (Homo sapiens, UniProt P16442, L266G/G268A); test: X-ray crystallography ([…] Å); assay type: binding; conditions: ternary complex with HAA; UDP carried over from purification
T1 construct: gene ABO; soluble catalytic domain, N-terminally truncated (forward primer MIN2 encodes MVSLPRMVYPQP; C-terminus ...NP at residue 354), made in E. coli BL21-gold from pCWdeltalac; SP-Sepharose and UDP-hexanolamine-Sepharose; residues 58-354 stated ordered in UDP-HAA crystal
T1 sequence (P16442 64-354 L266G/G268A): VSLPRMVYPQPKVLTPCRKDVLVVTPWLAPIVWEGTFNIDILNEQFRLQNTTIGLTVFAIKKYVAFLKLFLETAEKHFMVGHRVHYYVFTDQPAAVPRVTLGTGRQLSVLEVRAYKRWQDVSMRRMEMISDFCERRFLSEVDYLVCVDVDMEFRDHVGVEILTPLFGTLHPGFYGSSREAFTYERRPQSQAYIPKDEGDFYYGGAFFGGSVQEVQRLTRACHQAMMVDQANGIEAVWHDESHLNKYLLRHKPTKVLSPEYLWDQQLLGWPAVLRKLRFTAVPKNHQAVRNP

AAGlyB (GTA-L266G/G268A) [2] = target: T2, AAGlyB (GTA-L266G/G268A) (Homo sapiens, UniProt P16442, G268A/L266G); test: radiochemical Sep-Pak assay, Dixon plot; assay type: biochemical; conditions: read-out: 2
T2 construct: gene ABO; soluble catalytic domain, N-terminally truncated (forward primer MIN2 encodes MVSLPRMVYPQP; C-terminus ...NP at residue 354), made in E. coli BL21-gold from pCWdeltalac; SP-Sepharose and UDP-hexanolamine-Sepharose; residues 58-354 stated ordered in UDP-HAA crystal
T2 sequence (P16442 64-354 L266G/G268A): T1 sequence (P16442 64-354 L266G/G268A)
Source text: radiochemical Sep-Pak assay, Dixon plot on AAGlyB (GTA-L266G/G268A)

AAGlyB (GTA-L266G/G268A) [3] = target: T1, AAGlyB (GTA-L266G/G268A); test: capillary electrophoresis with LIF detection; assay type: biochemical; conditions: labelled compound; co-substrate compound 2 (33.3 μM), CE assay, 20 mM MnCl2, MOPS pH 7.0, 37 °C
Source text: (§1) capillary electrophoresis with LIF detection on AAGlyB (GTA-L266G/G268A)

[4] = substrate: O=c1[nH]c(=O)n([C@@H]2O[C@H](COP(=O)(O)OP(=O)(O)O[C@H]3O[C@H](CO)[C@H](O)[C@H](O)[C@H]3O)[C@@H](O)[C@H]2O)cc1-c1ccccc1; test: capillary electrophoresis with LIF detection; assay type: biochemical, Homo sapiens; conditions: 50 μM tetramethylrhodamine-labeled HAA, 20 mM MnCl2, 50 mM MOPS pH 7.0, 37 °C
Source text: as §1

For `O=c1ccn([C@@H]2O[C@H](COP(=O)(O)OP(=O)(O)O)[C@@H](O)[C@H]2O)c(=O)[nH]1` [UDP], the “X-ray crystallography (1.8 Å)” value (AAGlyB (GTA-L266G/G268A) [1]) was “The AAGlyB-UDP-HAA structure shows very well defined electron density”.

`O=c1[nH]c(=O)n([C@@H]2O[C@H](COP(=O)(O)OP(=O)(O)O[C@H]3O[C@H](CO)[C@H](O)[C@H](O)[C@H]3O)[C@@H](O)[C@H]2O)cc1-c1ccccc1` [compound 2, UDP-Gal derivative 2] was tested, and the Ki (AAGlyB (GTA-L266G/G268A) [2]) was 3 µM.

“α-Fucp-(1→2)-β-Galp-O-(CH2)8CONH(CH2)2NH-CO-tetramethylrhodamine” gave a Km (AAGlyB (GTA-L266G/G268A) [3]) of 56 ± 3 µM.

B1: AAGlyB (GTA-L266G/G268A) (Homo sapiens; G268A/L266G) (protein)
chain: T1 sequence (P16442 64-354 L266G/G268A)
notes: soluble catalytic domain, N-terminally truncated (forward primer MIN2 encodes …; C-terminus ...NP at residue 354), made in E. coli BL21-gold from pCWdeltalac; SP-Sepharose and UDP-hexanolamine-Sepharose; residues 58-354 stated ordered in UDP-HAA crystal
For B1, the Km [4] was 6.5 ± 0.5 µM and the kcat [4] was 0.006 ± 0.0008 s⁻¹.

Reference: article PMC3764824, “Base-modified Donor Analogues Reveal Novel Dynamic Features of a Glycosyltransferase” (The Journal of Biological Chemistry, 2013)
